The results in this text go back to US12459958B2, “Tricyclic compounds as HPK1 inhibitor and the use thereof” (BEIGENE, LTD., priority 2019, dated 2025).

This assay has as its target T1, HPK1 kinase (aa1-346, Life Technologies) (Homo sapiens, UniProt Q92918).
T1 construct: HPK1 kinase (aa1-346, Life Technologies); purchased Life Technologies
T1 sequence (Q92918 1-346): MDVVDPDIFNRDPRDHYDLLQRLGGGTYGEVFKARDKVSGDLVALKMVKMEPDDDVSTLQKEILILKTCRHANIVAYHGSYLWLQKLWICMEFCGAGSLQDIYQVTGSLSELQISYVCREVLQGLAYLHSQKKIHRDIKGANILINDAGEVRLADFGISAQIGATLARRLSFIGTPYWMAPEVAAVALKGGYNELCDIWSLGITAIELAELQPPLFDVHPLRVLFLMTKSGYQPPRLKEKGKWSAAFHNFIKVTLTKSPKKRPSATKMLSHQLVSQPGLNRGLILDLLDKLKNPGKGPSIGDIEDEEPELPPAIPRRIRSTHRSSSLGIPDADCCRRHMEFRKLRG
The experiment in a line: HPK Kinase Activity Assay at 1 mM ATP (TR-FRET). Format: biochemical. Particulars: HPK1 kinase 40 nM, 0.5 μM STK1 substrate, read-out: Enzymatic activity IC50. The procedure:
HPK Kinase Activity Assay at 1 mM ATP
Compounds disclosed herein were tested for inhibition of HPK1 kinase (aa1-346, Life Technologies) activity in assays based on the time-resolved fluorescence-resonance energy transfer (TR-FRET) methodology. The assays were carried out in 384-well low volume black plates in a reaction mixture containing HPK1 kinase (40 nM), 1 mM ATP, 0.5 μM STK1 substrate and 0-10 μM compound in buffer containing 50 mM HEPES, 0.01% BSA, 0.1 mM Orthovanadate, 10 mM MgCl2, 1 mM DTT, pH=7.0, 0.005% Tween-20. The kinase was incubated with the compounds disclosed herein or DMSO for 60 minutes at room temperature and the reaction was initiated by the addition of ATP and STK1 substrate. After reaction at room temperature for 120 minutes, an equal volume of stop/detection solution was added according to the manufacture's instruction (CisBio). The stop/detection solution contained STK Antibody-Cryptate and XL665-conjugated streptavidin in Detection Buffer. The TR-FRET signals (ratio of fluorescence emission at 665 nm over emission at 620 nm with excitation at 337 nm wavelength) were recorded on a PHERAstar FS plate reader (BMG Labtech). Phosphorylation of STK1 substrate led to the binding of STK Antibody-Cryptate to the biotinylated STK1 substrate, which places fluorescent donor (Eu^3+ crypate) in close proximity to the accepter (Streptavidin-XL665), thus resulting in a high degree of fluorescence resonance energy transfer. The inhibition of HPK1 in presence of increasing concentrations of compounds was calculated based on the ratio of fluorescence at 665 nm to that at 620 nm. The IC50 for each compound was derived from fitting the data to the four-parameter logistic equation by Graphpad Prism software.

As to `Cc1cc(-c2cnc3[nH]cc(-c4ccc(C(=O)N(C)C[C@@H]5CCOC5)cc4)c3c2)cc2c1N1CCN(C)C[C@H]1CC2` [Example 4A, 4-(5-((R)-3,10-dimethyl-2,3,4,4a,5,6-hexahydro-1H-pyrazino[1,2-a]quinolin-8-yl)-1H-pyrrolo[2,3-b]pyridin-3-yl)-N-methyl-N—(((S)-tetrahydrofuran-3-yl)methyl)benzamide], the IC50 is 14 nM.

As for `Cc1cc(-c2cnc3[nH]cc(-c4ccc(C(=O)N(C)C[C@@H]5CCOC5)cc4)c3c2)cc2c1N1CCN(C)C[C@@H]1CC2` [Example 4B, 4-(5-((S)-3,10-dimethyl-2,3,4,4a,5,6-hexahydro-1H-pyrazino[1,2-a]quinolin-8-yl)-1H-pyrrolo[2,3-b]pyridin-3-yl)-N-methyl-N—(((S)-tetrahydrofuran-3-yl)methyl)benzamide], the IC50 worked out at 15 nM.

In the case of `Cc1cc(-c2cnc3[nH]cc(-c4ccc(C(=O)N(C)C[C@@H]5CCOC5)cc4)c3n2)cc2c1N1CCN(C)C[C@@H]1CC2` [Example 10B, 4-(2-((S)-3,10-dimethyl-2,3,4,4a,5,6-hexahydro-1H-pyrazino[1,2-a]quinolin-8-yl)-5H-pyrrolo[2,3-b]pyrazin-7-yl)-N-methvl-N—(((S)-tetrahydrofuran-3-yl)methyl)benzamide], the IC50 turned out to be 17 nM.

Take `Cc1cc(-c2c[nH]c3ncc(-c4cc(C)c5c(c4)CC[C@@H]4CN(C)CCN54)nc23)ccc1C(=O)N(C)C[C@@H]1CCOC1` [Example 11A, 4-(2-((R)-3,10-dimethyl-2,3,4,4a,5,6-hexahydro-1H-pyrazino[1,2-a]quinolin-8-yl)-5H-pyrrolo[2,3-b]pyrazin-7-yl)-N,2-dimethyl-N—(((S)-tetrahydrofuran-3-yl)methyl)benzamide]: the IC50 was found to be 52 nM.

For `Cc1cc(-c2cnc3[nH]cc(-c4ccc(C(=O)N5CC6(COC6)C5)cc4)c3n2)cc2c1N1CCN(C)C[C@H]1CC2` [Example 9A, (R)-(4-(2-(3,10-dimethyl-2,3,4,4a,5,6-hexahydro-1H-pyrazino[1,2-a]quinolin-8-yl)-5H-pyrrolo[2,3-b]pyrazin-7-yl)phenyl)(2-oxa-6-azaspiro[3.3]heptan-6-yl)methanone], the IC50 was 17 nM.

For `Cc1cc(-c2c[nH]c3ncc(-c4cc(C)c5c(c4)CC[C@H]4CN(C)CCN54)nc23)ccc1C(=O)N(C)C[C@@H]1CCOC1` [Example 11B, 4-(2-((S)-3,10-dimethyl-2,3,4,4a,5,6-hexahydro-1H-pyrazino[1,2-a]quinolin-8-yl)-5H-pyrrolo[2,3-b]pyrazin-7-yl)-N,2-dimethyl-N—(((S)-tetrahydrofuran-3-yl)methyl)benzamide], the IC50 was 53 nM.

Consider `Cc1cc(-c2c[nH]c3ncc(-c4cc(C)c5c(c4)CC[C@@H]4CN(C)CCN54)nc23)ccc1C(=O)N(C)C` [Example 6A, (R)-4-(2-(3,10-dimethyl-2,3,4,4a,5,6-hexahydro-1H-pyrazino[1,2-a]quinolin-8-yl)-5H-pyrrolo[2,3-b]pyrazin-7-yl)-N,N,2-trimethylbenzamide], for which the IC50 is 36 nM.

With `Cc1cc(-c2cnc3[nH]cc(-c4ccc(C(=O)N(C)C)cc4)c3c2)cc2c1N1CCN(C)CC1CC2` (stereo not drawn) [Example 1, 4-(5-(3,10-dimethyl-2,3,4,4a,5,6-hexahydro-1H-pyrazino[1,2-a]quinolin-8-yl)-1H-pyrrolo[2,3-b]pyridin-3-yl)-N,N-dimethylbenzamide], the IC50 came to 31 nM.

In the case of `Cc1cc(-c2cnc3[nH]cc(-c4ccc(C(=O)N(C)C[C@@H]5CCOC5)cc4)c3n2)cc2c1N1CCN(C)C[C@H]1CC2` [Example 10A, 4-(2-((R)-3,10-dimethyl-2,3,4,4a,5,6-hexahydro-1H-pyrazino[1,2-a]quinolin-8-yl)-5H-pyrrolo[2,3-b]pyrazin-7-yl)-N-methyl-N—(((S)-tetrahydrofuran-3-yl)methyl)benzamide], the IC50 was found to be 17 nM.
